We go through 18 compounds from US20110217300A1, “Quinazolinone Compounds and Methods of Use Thereof” (priority 2007, published 2011).

Assay [1] concerns NCI-H460. Briefly: MTS cell viability assay. The assay is classed as cell-based, human. The following applies: Homo sapiens, NCI-H460, 72 h. The method, boiled down: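 Growth inhibition is assessed by MTS conversion in human cancer cells cultured in DMEM with 10% FBS. Compound exposure lasts 72 h at 0.33% final DMSO, and GI50 is derived from […] readings.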
(Formazan colour is commonly taken as a measure of viable cells.)

The target in assay [2] is T1, HsEg5 (Homo sapiens, UniProt P52732).
T1 sequence (P52732 18-359 limits assumed): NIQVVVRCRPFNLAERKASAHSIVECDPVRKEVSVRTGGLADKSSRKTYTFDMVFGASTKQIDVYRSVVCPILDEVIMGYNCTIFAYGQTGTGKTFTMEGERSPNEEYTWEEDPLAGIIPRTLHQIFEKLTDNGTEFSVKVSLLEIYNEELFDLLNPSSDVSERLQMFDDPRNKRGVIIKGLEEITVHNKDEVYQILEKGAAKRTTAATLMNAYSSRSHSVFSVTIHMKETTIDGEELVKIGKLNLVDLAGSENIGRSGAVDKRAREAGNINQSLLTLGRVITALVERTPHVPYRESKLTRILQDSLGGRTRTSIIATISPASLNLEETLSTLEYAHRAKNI
Nature of the assay: Fluorescence detection of HsEg5 ATPase activity (ADP Quest, automated). It is filed as biochemical. The method in brief:
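Microtubule-activated HsEg5 motor fragment (10 nM, 500 nM MTs) preincubated 10 min with compound, then 20 μM ATP for 10 min at room temperature in Pipes pH 7.0, MgCl2, paclitaxel, 0.3% DMSO. ADP detected via coupled-enzyme resorufin fluorescence; IC50 over 100 μM–5 nM.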

Assay [3] deals with A549. Nature of the assay: MTS cell viability assay. The assay is classed as cell-based. The note with it: Homo sapiens, A549 non small cell lung, 72 hours, read-out: MTS NCI A549 GI50. The method in brief:
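A549 and a second human cancer line seeded in DMEM/10% FBS, allowed 16–24 h to attach, then exposed 72 h at 37 °C, 5% CO2 to serially diluted compound (final DMSO 0.33%). Viability measured by MTS.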

Setting [4] is: read-out: MTS NCI H460 GI50, NCI-H460 non small cell lung, 72 hours.

Like-named read-outs stand apart in the source and are kept apart here.

As a reminder, the GI50 is the concentration giving 50% growth inhibition. A word on the IC50: it is the concentration that gives 50% inhibition. As for `CCC(c1nc2cc(Cl)ccc2c(=O)n1Nc1ccccc1)N(CCCN)C(=O)c1ccc(Cl)c(Cl)c1` (stereo not drawn) [Compound 6, N-(3-Aminopropyl)-N-[1-(3-anilino-7-chloro-4-oxo-3,4-dihydroquinazolin-2-yl)propyl]-3,4-dichlorobenzamide], the concentration for 50% growth inhibition (GI50) in assay [1] (setting [4]) was determined as 1.16 µM; in assay [3] (A549, 72 h), 1.87 µM. Also, in assay [2], the IC50 was determined as 0.418 µM.
With `CC(C)C(c1nc2cc(Cl)ccc2c(=O)n1Nc1ccccc1)N(CCCN)C(=O)c1cccc(Br)c1` (stereo not drawn) [Compound 44, N-(3-Aminopropyl)-N-[1-(3-anilino-7-chloro-4-oxo-3,4-dihydroquinazolin-2-yl)-2-methylpropyl]-3-bromobenzamide], the GI50 worked out at 13.4 µM in assay [1] (setting [4]) and 13.8 µM in assay [3] (A549, 72 h). The midpoint of inhibition in assay [2], the IC50, lay at 1.85 µM.
As to `CC(C)C(c1nc2cc(Cl)ccc2c(=O)n1Nc1ccccc1)N(CCCN)C(=O)c1cc(F)c(Cl)cc1F` (stereo not drawn) [Compound 45, N-(3-Aminopropyl)-N-[1-(3-anilino-7-chloro-4-oxo-3,4-dihydroquinazolin-2-yl)-2-methylpropyl]-4-chloro-2,5-difluorobenzamide], the GI50 in assay [1] (read-out: MTS NCI H460 GI50) was determined as 3.17 µM; in assay [3] it was 3.24 µM. The compound further came in with an IC50 in assay [2] of 0.743 µM.
On to `CCC(c1nc2cc(Cl)ccc2c(=O)n1Nc1ccccc1)N(CCCN)C(=O)c1ccc(F)c(F)c1` (stereo not drawn) [Compound 9, N-(3-Aminopropyl)-N-[1-(3-anilino-7-chloro-4-oxo-3,4-dihydroquinazolin-2-yl)propyl]-3,4-difluorobenzamide], for which the GI50 in assay [1] (setting [4]) was 2.39 µM; in assay [3] (A549, 72 h), 3.57 µM. For the same compound, the IC50 in assay [2] was found to be 1.16 µM.
Take `CCC(c1nc2cc(Cl)ccc2c(=O)n1Nc1cc(F)ccc1F)N(CCCN)C(=O)c1ccc(C)cc1` (stereo not drawn) [Compound 26, N-(3-Aminopropyl)-N-(1-{7-chloro-3-[(2,5-difluorophenyl)amino]-4-oxo-3,4-dihydroquinazolin-2-yl}propyl)-4-methylbenzamide]: the concentration for 50% growth inhibition (GI50) in assay [1] (read-out: MTS NCI H460 GI50) was determined as 0.889 µM; in assay [3] it was 1.25 µM. Further, it took 0.944 µM to reach half-maximal inhibition in assay [2] (IC50).
In the case of `NCCCN(C(=O)c1ccc(F)c(F)c1)C(Cc1cccs1)c1nc2cc(Cl)ccc2c(=O)n1Nc1ccccc1` (stereo not drawn) [Compound 52, N-(3-Aminopropyl)-N-[1-(3-anilino-7-chloro-4-oxo-3,4-dihydroquinazolin-2-yl)-2-(2-thienyl)ethyl]-3,4-difluorobenzamide], the GI50 in assay [1] (setting [4]) turned out to be 3.47 µM; in assay [3] (A549, 72 h), 4.29 µM. In addition, the IC50 in assay [2] was determined as 1.25 µM.
In the case of `CCC(c1nc2cc(Cl)ccc2c(=O)n1Nc1ccccc1)N(CCCN)C(=O)c1ccc(F)c(Cl)c1F` (stereo not drawn) [Compound 20, N-(3-Aminopropyl)-N-[1-(3-anilino-7-chloro-4-oxo-3,4-dihydroquinazolin-2-yl)propyl]-3-chloro-2,4-difluorobenzamide], the GI50 in assay [1] (read-out: MTS NCI H460 GI50) amounted to 1 µM; in assay [3], 1.8 µM. The compound further came in with an IC50 in assay [2] of 0.844 µM.
With `CCC(c1nc2cc(Cl)ccc2c(=O)n1Nc1ccccc1)N(CCN)C(=O)c1ccc(C)c(F)c1F` (stereo not drawn) [Compound 65, N-(2-Aminoethyl)-N-[1-(3-anilino-7-chloro-4-oxo-3,4-dihydroquinazolin-2-yl)propyl]-2,3-difluoro-4-methylbenzamide], the concentration for 50% growth inhibition (GI50) was 11.4 µM in assay [1] (read-out: MTS NCI H460 GI50) and 12.4 µM in assay [3]. The IC50 in assay [2] was 4.08 µM.
Take `CC(C)C(c1nc2cc(Cl)ccc2c(=O)n1Nc1ccccc1)N(CCCN)C(=O)c1ccc2ccccc2n1` (stereo not drawn) [Compound 47, N-(3-Aminopropyl)-N-[1-(3-anilino-7-chloro-4-oxo-3,4-dihydroquinazolin-2-yl)-2-methylpropyl]quinoline-2-carboxamide]: the 50% growth inhibitory concentration (GI50) in assay [1] (read-out: MTS NCI H460 GI50) came to 2.7 µM; in assay [3], 4.09 µM. The IC50 in assay [2] came out at 3.23 µM.
As to `CC(C)CC(c1nc2cc(Cl)ccc2c(=O)n1Nc1ccccc1)N(CCCN)C(=O)c1ccc(F)c(Cl)c1` (stereo not drawn) [Compound 37, N-(3-Aminopropyl)-N-[1-(3-anilino-7-chloro-4-oxo-3,4-dihydroquinazolin-2-yl)-3-methylbutyl]-3-chloro-4-fluorobenzamide], the GI50 in assay [1] (setting [4]) came out at 4.49 µM; in assay [3] (A549, 72 h), 5.02 µM. The IC50 in assay [2] came to 1.66 µM.
Take `CCC(c1nc2cc(Cl)ccc2c(=O)n1Nc1ccccc1)N(CCCN)C(=O)c1cccc(Cl)c1F` (stereo not drawn) [Compound 19, N-(3-Aminopropyl)-N-[1-(3-anilino-7-chloro-4-oxo-3,4-dihydroquinazolin-2-yl)propyl]-3-chloro-2-fluorobenzamide]: the GI50 in assay [1] (read-out: MTS NCI H460 GI50) was determined as 0.894 µM; in assay [3], 1.57 µM. The IC50 in assay [2] came to 0.582 µM.
Turning to `CCC(c1nc2cc(Cl)ccc2c(=O)n1Nc1ccccc1)N(CCCN)C(=O)c1ccc(-n2cccn2)cc1` (stereo not drawn) [Compound 23, N-(3-Aminopropyl)-N-[1-(3-anilino-7-chloro-4-oxo-3,4-dihydroquinazolin-2-yl)propyl]-4-(1H-pyrazol-1-yl)benzamide], the GI50 in assay [1] (setting [4]) is 1.12 µM; in assay [3] (A549, 72 h), 2.49 µM. Moreover, inhibition in assay [2] was half-maximal at 1.02 µM (IC50).
`CC(C)CC(c1nc2cc(Cl)ccc2c(=O)n1Nc1ccccc1)N(CCCN)C(=O)c1ccc(F)c(F)c1` (stereo not drawn) [Compound 35, N-(3-Aminopropyl)-N-[1-(3-anilino-7-chloro-4-oxo-3,4-dihydroquinazolin-2-yl)-3-methylbutyl]-3,4-difluorobenzamide]: the GI50 in assay [1] (read-out: MTS NCI H460 GI50) was found to be 6.15 µM; in assay [3], 4.52 µM. In assay [2], this compound returned an IC50 of 1.96 µM.
For the compound `CC(C)C(c1nc2cc(Cl)ccc2c(=O)n1Nc1ccccc1)N(CCCN)C(=O)c1cccc(F)c1F` (stereo not drawn) [Compound 42, N-(3-Aminopropyl)-N-[1-(3-anilino-7-chloro-4-oxo-3,4-dihydroquinazolin-2-yl)-2-methylpropyl]-2,3-difluorobenzamide], the results for the 50% growth inhibitory concentration (GI50) in assay [1] (read-out: MTS NCI H460 GI50) and in assay [3] were 2.08 µM and 4.28 µM, respectively. This compound gave an IC50 in assay [2] of 0.476 µM.
`CCC(c1nc2cc(Cl)ccc2c(=O)n1Nc1ccccc1)N(CCN)C(=O)c1ccc(F)c(C)c1` (stereo not drawn) [Compound 63, N-(2-Aminoethyl)-N-[1-(3-anilino-7-chloro-4-oxo-3,4-dihydroquinazolin-2-yl)propyl]-4-fluoro-3-methylbenzamide]: the GI50 in assay [1] (read-out: MTS NCI H460 GI50) stood at 10.5 µM; in assay [3] it was 7.02 µM. In addition, the IC50 in assay [2] turned out to be 3.34 µM.
The like results for `CCC(c1nc2cc(Cl)ccc2c(=O)n1OCc1ccccc1)N(CCCN)C(=O)c1ccc(C)cc1` (stereo not drawn) [Compound 32, N-(3-Aminopropyl)-N-{1-[3-(benzyloxy)-7-chloro-4-oxo-3,4-dihydroquinazolin-2-yl]propyl}-4-methylbenzamide] were, in that order, 0.956 µM, 1.87 µM and 1.39 µM.
With `CCC(c1nc2cc(Cl)ccc2c(=O)n1Nc1ccccc1)N(CCN)C(=O)c1cccc(Cl)c1F` (stereo not drawn) [Compound 64, N-(2-Aminoethyl)-N-[1-(3-anilino-7-chloro-4-oxo-3,4-dihydroquinazolin-2-yl)propyl]-3-chloro-2-fluorobenzamide], the values for the concentration for 50% growth inhibition (GI50) in assay [1] (read-out: MTS NCI H460 GI50) and in assay [3] were 6.81 µM and 12.6 µM, respectively. In addition, in assay [2], 1.46 µM corresponded to half-maximal inhibition (IC50).
In the case of `CCC(c1nc2cc(Cl)ccc2c(=O)n1Nc1ccccc1)N(CCCN)C(=O)c1ccc(C)cc1` (stereo not drawn) [Compound 3, N-(3-Aminopropyl)-N-[1-(3-anilino-7-chloro-4-oxo-3,4-dihydroquinazolin-2-yl)propyl]-4-methylbenzamide], the GI50 in assay [1] (setting [4]) worked out at 1.19 µM; in assay [3] (A549, 72 h) it was 2.3 µM. Besides, in assay [2], the IC50 was 0.702 µM.
